In publication PMC13245873, “Uridine cytidine kinases govern molnupiravir bioactivation and anti-SARS-CoV-2 activity” (PLOS Pathogens, 2026):

What was measured:
UCK1 [1] = molecular target: T1, UCK1 (Homo sapiens, UniProt Q9HA47); test: X-ray co-crystal structure ([…] Å, with NHC); format: binding
T1 construct: amino acids 21–235, N-terminal His tag
T1 sequence (Q9HA47 21-235): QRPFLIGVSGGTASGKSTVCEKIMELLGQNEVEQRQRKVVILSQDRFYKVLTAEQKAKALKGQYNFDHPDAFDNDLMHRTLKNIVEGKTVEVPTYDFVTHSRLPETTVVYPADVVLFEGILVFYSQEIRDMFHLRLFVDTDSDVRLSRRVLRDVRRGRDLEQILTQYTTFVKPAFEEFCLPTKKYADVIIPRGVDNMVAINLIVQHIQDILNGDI

UCK1 [2] = molecular target: T2, UCK1 (Homo sapiens, UniProt Q9HA47); test: ADP-Glo-coupled kinase kinetics; DSF dose-response; format: biochemical
T2 construct: recombinant, N-terminal His tag
T2 sequence (Q9HA47 1-277): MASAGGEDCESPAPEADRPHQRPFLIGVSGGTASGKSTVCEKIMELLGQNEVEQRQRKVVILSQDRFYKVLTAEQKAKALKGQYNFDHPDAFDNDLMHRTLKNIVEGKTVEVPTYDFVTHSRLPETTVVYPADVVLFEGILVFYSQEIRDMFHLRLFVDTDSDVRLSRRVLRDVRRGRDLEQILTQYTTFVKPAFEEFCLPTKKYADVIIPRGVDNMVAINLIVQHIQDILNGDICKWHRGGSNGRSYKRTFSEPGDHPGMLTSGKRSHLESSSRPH

UCK2 = molecular target: T3, UCK2 (Homo sapiens, UniProt Q9BZX2); test: ADP-Glo-coupled kinase kinetics (kcat/Km); DSF dose-response; format: biochemical
T3 construct: recombinant, C-terminal His tag
T3 sequence (Q9BZX2 2-261): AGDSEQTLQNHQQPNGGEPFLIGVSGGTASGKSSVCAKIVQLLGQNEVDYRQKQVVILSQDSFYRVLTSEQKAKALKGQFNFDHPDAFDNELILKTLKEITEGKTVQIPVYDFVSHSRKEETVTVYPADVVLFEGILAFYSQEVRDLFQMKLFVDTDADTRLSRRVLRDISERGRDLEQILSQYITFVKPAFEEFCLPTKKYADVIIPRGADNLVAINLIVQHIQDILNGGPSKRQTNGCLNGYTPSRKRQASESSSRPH

[3] = substrate: O=c1nc(NO)ccn1[C@@H]1O[C@H](CO)[C@@H](O)[C@H]1O; test: ADP-Glo-coupled kinase kinetics (Km); DSF dose-response; format: biochemical, Homo sapiens; conditions: ATP, Mg2+
Text: ADP-Glo-coupled kinase kinetics (Km); DSF dose-response on UCK2 | NHC was a substrate for both UCK1 and UCK2

[4] = molecular target: the molecule itself; test: SEC; gel filtration of purified recombinant UCK1 (amino acids 21–235) on a Superdex200 increase 10/300 GL column; single peak
purified protein = substrate: O=c1nc(NO)ccn1[C@@H]1O[C@H](CO)[C@@H](O)[C@H]1O; test: purified protein; format: binding, Homo sapiens; conditions: AMPPNP (ATP site) and Mg2+ active site; π-stacking with F86 and F117; H-bonds with D65, D87, Y115, H120, R160 and the ATP gamma-phosphate

Molecule: Nc1ncnc2c1ncn2[C@@H]1O[C@H](CO[P@](=O)(O)O[P@](=O)(O)NP(=O)(O)O)[C@@H](O)[C@H]1O [AMPPNP, adenosine 5’-(β,γ-imido)triphosphate]
- X-ray co-crystal structure (2.40 Å, with NHC) (UCK1 [1]): AMPPNP binds in a pocket closer to the surface, and is positioned by H-bonds between the phosphate group and residues

Molecule: Nc1ccn([C@@H]2O[C@H](CO)[C@@H](O)[C@H]2O)c(=O)n1 [C, cytidine]
- ADP-Glo-coupled kinase kinetics; DSF dose-response (UCK1 [2]): Using cytidine as the substrate, the ADP-Glo-coupled kinase activity assay produced kinetic parameters
- ADP-Glo-coupled kinase kinetics (kcat/Km); DSF dose-response (UCK2): 56666.7 M⁻¹ s⁻¹

B1: UCK2 (Homo sapiens) (protein)
chain: AGDSEQTLQNHQQPNGGEPFLIGVSGGTASGKSSVCAKIVQLLGQNEVDYRQKQVVILSQDSFYRVLTSEQKAKALKGQFNFDHPDAFDNELILKTLKEITEGKTVQIPVYDFVSHSRKEETVTVYPADVVLFEGILAFYSQEVRDLFQMKLFVDTDADTRLSRRVLRDISERGRDLEQILSQYITFVKPAFEEFCLPTKKYADVIIPRGADNLVAINLIVQHIQDILNGGPSKRQTNGCLNGYTPSRKRQASESSSRPH
notes: recombinant, C-terminal His tag
- Km [3]: 260 ± 70 µM

B2: human UCK1 construct (amino acids 21–235) (enzyme, UniProt Q9HA47 21-235, looked up)
chain: QRPFLIGVSGGTASGKSTVCEKIMELLGQNEVEQRQRKVVILSQDRFYKVLTAEQKAKALKGQYNFDHPDAFDNDLMHRTLKNIVEGKTVEVPTYDFVTHSRLPETTVVYPADVVLFEGILVFYSQEIRDMFHLRLFVDTDSDVRLSRRVLRDVRRGRDLEQILTQYTTFVKPAFEEFCLPTKKYADVIIPRGVDNMVAINLIVQHIQDILNGDI
notes: uridine cytidine kinase 1 (UCK1), human, residues 21-235; cDNA optimized for expression in E. coli, in pET24a(+); Tetramer by gel filtration and in the crystal's asymmetric unit; also called hUCK1; uridine cytidine kinase 1; source: E. coli BL21 (DE3), purified (IMAC, SEC)
- stoichiometry N [4]: 4
- Km (purified protein): 1140 ± 320 µM
